Results from ChEMBL document CHEMBL1158561, “Synthesis of 4-(3-biaryl)quinoline sulfones as potent liver X receptor agonists” (Bioorg Med Chem Lett, 2010).

What was measured:
J774 = experiment: cells; conditions: Mus musculus
HepG2 = experiment: cells; conditions: Homo sapiens
Huh-7 = experiment: Upregulation of SREB1c mRNA level in human HuH7 cells; type: functional, cell-based
[1] = Half life in rat liver microsome; type: ADME; conditions: liver microsomes
[2] = Half life in human liver microsome; type: ADME; conditions: liver microsomes
[3] = Half life in C57 mouse at 10 mg/kg, po; type: ADME, organism-based; set-up: dose 10 mg/kg, route oral; conditions: in vivo
[4] = Tmax in C57 mouse at 10 mg/kg, po; type: ADME, organism-based; set-up: dose 10 mg/kg, route oral; conditions: in vivo
[5] = Oral bioavailability in C57 mouse at 10 mg/kg; type: ADME, organism-based; conditions: in vivo
[6] = AUC (0 to infinity) in C57 mouse at 10 mg/kg, po; type: ADME, organism-based; set-up: time infinity, dose 10 mg/kg, route oral; conditions: plasma
[7] = Cmax in C57 mouse at 10 mg/kg, po; type: ADME, organism-based; set-up: dose 10 mg/kg, route oral; conditions: in vivo
[8] = target: T1, Oxysterols receptor LXR-alpha (Homo sapiens, UniProt Q13133); experiment: Displacement of [3H]T0901317 from LXRalpha ligand binding domain
T1 sequence (Q13133 whole entry): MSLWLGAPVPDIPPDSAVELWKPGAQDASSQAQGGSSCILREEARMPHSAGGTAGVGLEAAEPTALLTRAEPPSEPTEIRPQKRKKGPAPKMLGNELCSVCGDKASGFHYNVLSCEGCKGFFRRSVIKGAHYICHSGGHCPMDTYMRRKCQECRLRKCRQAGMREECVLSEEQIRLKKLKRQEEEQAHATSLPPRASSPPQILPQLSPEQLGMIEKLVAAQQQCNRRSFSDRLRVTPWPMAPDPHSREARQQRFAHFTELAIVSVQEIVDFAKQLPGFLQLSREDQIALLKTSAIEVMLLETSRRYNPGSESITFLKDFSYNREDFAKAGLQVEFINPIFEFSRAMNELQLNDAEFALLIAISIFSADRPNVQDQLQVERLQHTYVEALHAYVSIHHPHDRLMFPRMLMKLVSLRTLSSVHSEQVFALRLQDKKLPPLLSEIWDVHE

[9] = target: Oxysterols receptor LXR-beta (Homo sapiens, UniProt P55055); experiment: Displacement of [3H]T0901317 from LXRbeta ligand binding domain
Oxysterols receptor LXR-beta, sequence (P55055 whole entry, the tested form may be a part): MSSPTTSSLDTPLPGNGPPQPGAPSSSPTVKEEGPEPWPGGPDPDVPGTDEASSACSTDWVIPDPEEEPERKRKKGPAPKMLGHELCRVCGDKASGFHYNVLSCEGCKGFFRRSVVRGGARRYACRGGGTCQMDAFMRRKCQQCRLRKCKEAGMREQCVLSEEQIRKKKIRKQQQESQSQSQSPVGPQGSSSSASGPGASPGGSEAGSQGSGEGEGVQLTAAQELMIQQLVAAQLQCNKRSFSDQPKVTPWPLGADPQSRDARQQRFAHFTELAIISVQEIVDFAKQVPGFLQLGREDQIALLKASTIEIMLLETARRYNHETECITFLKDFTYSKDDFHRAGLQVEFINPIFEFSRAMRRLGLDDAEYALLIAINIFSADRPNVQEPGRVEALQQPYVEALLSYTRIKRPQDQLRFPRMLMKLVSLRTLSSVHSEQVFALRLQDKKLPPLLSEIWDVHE

## CC(C)c1cnc2c(C(F)(F)F)cccc2c1-c1cccc(-c2cccc(S(C)(=O)=O)c2)c1
J774
  EC50: 0.5 nM
HepG2
  EC50: 0.5 nM
Huh-7
  EC50: 6 nM
[1]
  half-life: > 30 min
[2]
  half-life: > 30 min

## CS(=O)(=O)c1cccc(-c2cccc(-c3ccnc4c(C(F)(F)F)cccc34)c2)c1
J774
  EC50: 77 nM
[3]
  half-life: 834 min
[4]
  Tmax: 60 min
[5]
  bioavailability: 100%
[6]
  AUC(0-inf): 3010 ng·h/mL
HepG2
  EC50: 77 nM
Huh-7
  EC50: 440 nM
[7]
  Cmax: 106 ng/mL
[1]
  half-life: > 30 min
[2]
  half-life: > 30 min

## Cc1cnc2c(C(F)(F)F)cccc2c1-c1cccc(-c2ccc(S(C)(=O)=O)cc2)c1
[8]
  IC50: > 1000 nM
[1]
  half-life: > 30 min
[2]
  half-life: > 30 min

## CCS(=O)(=O)c1cccc(-c2cccc(-c3ccnc4c(C(F)(F)F)cccc34)c2)c1
J774
  EC50: 156 nM
HepG2
  EC50: 156 nM
Huh-7
  EC50: 521 nM
[1]
  half-life: > 30 min
[2]
  half-life: > 30 min

## CS(=O)(=O)c1cc(-c2cccc(-c3ccnc4c(C(F)(F)F)cccc34)c2)c(F)cc1F
J774
  EC50: 11 nM
HepG2
  EC50: 133 nM
Huh-7
  EC50: 132 nM
[1]
  half-life: > 30 min
[2]
  half-life: > 30 min

## CS(=O)(=O)c1cc(-c2cccc(-c3ccnc4c(C(F)(F)F)cccc34)c2)ccc1F
J774
  EC50: 140 nM
HepG2
  EC50: 41 nM
[1]
  half-life: 12 min
[2]
  half-life: > 30 min

## CCc1cnc2c(C(F)(F)F)cccc2c1-c1cccc(-c2cccc(S(C)(=O)=O)c2)c1
J774
  EC50: 0.7 nM
HepG2
  EC50: 0.7 nM
Huh-7
  EC50: 8 nM
[1]
  half-life: > 30 min
[2]
  half-life: > 30 min

## CS(=O)(=O)c1cccc(-c2cccc(-c3c(Cc4ccccc4)cnc4c(C(F)(F)F)cccc34)c2)c1
[1]
  half-life: 16 min

## Cc1cnc2c(C(F)(F)F)cccc2c1-c1cccc(-c2cc(S(C)(=O)=O)c(F)cc2F)c1
[1]
  half-life: > 30 min
[2]
  half-life: > 30 min

## O=S(=O)(c1ccccc1)N(CC(F)(F)F)c1ccc(C(O)(C(F)(F)F)C(F)(F)F)cc1 [T091317]
HepG2
  EC50: 107 nM
Huh-7
  EC50: 36 nM
[1]
  half-life: > 30 min
[2]
  half-life: > 30 min

## CS(=O)(=O)c1ccc(-c2cccc(-c3ccnc4c(C(F)(F)F)cccc34)c2)cc1
[8]
  IC50: > 1000 nM
[9]
  IC50: > 1000 nM
[1]
  half-life: > 30 min
[2]
  half-life: > 30 min

## CCS(=O)(=O)c1cccc(-c2cccc(-c3c(C)cnc4c(C(F)(F)F)cccc34)c2)c1
J774
  EC50: 190 nM
HepG2
  EC50: 190 nM
Huh-7
  EC50: 250 nM
[1]
  half-life: > 30 min
[2]
  half-life: > 30 min

## Cc1ccc(-c2cccc(-c3c(C)cnc4c(C(F)(F)F)cccc34)c2)cc1S(C)(=O)=O
[1]
  half-life: 27 min
[2]
  half-life: > 30 min

## CCCc1cnc2c(C(F)(F)F)cccc2c1-c1cccc(-c2cccc(S(C)(=O)=O)c2)c1
J774
  EC50: 0.4 nM
HepG2
  EC50: 0.4 nM
Huh-7
  EC50: 8 nM
[1]
  half-life: > 30 min
[2]
  half-life: > 30 min

## Cc1cnc2c(C(F)(F)F)cccc2c1-c1cccc(-c2ccc(F)c(S(C)(=O)=O)c2)c1
[1]
  half-life: 19 min
[2]
  half-life: > 30 min

## CS(=O)(=O)c1ccc(-c2cccc(-c3c(Cc4ccccc4)cnc4c(C(F)(F)F)cccc34)c2)cc1
J774
  EC50: 571 nM
HepG2
  EC50: 571 nM
Huh-7
  EC50: 571 nM
[1]
  half-life: 7 min
[2]
  half-life: 27 min

## COc1ccc(-c2cccc(-c3c(C)cnc4c(C(F)(F)F)cccc34)c2)cc1S(C)(=O)=O
[8]
  IC50: > 1000 nM
[2]
  half-life: > 30 min

## Cc1cnc2c(C(F)(F)F)cccc2c1-c1cccc(-c2cccc(S(C)(=O)=O)c2)c1
J774
  EC50: 23 nM
HepG2
  EC50: 23 nM
Huh-7
  EC50: 52 nM
[1]
  half-life: > 30 min
